Marks after values point to notes of the source that are not given here.
Tests used:
[1] = tested on: E. coli; assay: Microorganism count in emulsions diluted to 2% (Example 20, Table 2); type: cell-based; conditions: emulsion diluted to 2% with PBS pH=7.00, +37°C
[2] = tested on: Escherichia coli ATTC 8739; assay: Microorganism count in 2% solutions of sodium salts (Example 19); type: cell-based; conditions: 2% solution, pH about 7, +37°C
Description: (§1) Staphylococcus epidermidis 61540-51 and Escherichia coli ATTC 8739 were each added to a respective solution in a concentration of about 3000-10 000/ml. These samples were then incubated at +37°C for 20 hours. A microorganism count was carried out after 2 and 20 hours, in a manner described in microbiological literature. Parallel with the aforesaid tests, a control was run in pure phosphate buffer and in Tryptone soya broth (TSB) with additions of Staphylococcus epidermidis 61540-51 and Escherichia coli ATTC 8739 respectively, to ascertain the viability of the microorganisms to survive, i.e. the ability of the microorganisms to grow under the ideal conditions provided. After 2 hours, the number of organisms/ml of type Staphylococcus epidermidis in the phosphate solution was 4300 and after 20 hours 1. Growth could be established in TSB after 20 hours. […] This was also the case with the sodium salt of 2 percent 5-methyl-3-oxo-hexanoic acid ethyl ester. After 2 hours, the microorganism count of Escherichia coli in the phosphate solution was 3400, and after 20 hours 7400. Growth was established in TSB after 20 hours. In the solution containing 2% sodium salt of 4-methyl-3-oxo-pentanoic acid ethyl ester, the organism count was 2000 after 2 hours and 0 after 20 hours. With respect to the sodium salt of 5-methyl-3-oxo-hexanoic acid ethyl ester, the organism count was 44 after 2 hours and 0 after 20 hours.

[3] = tested on: Staphylococcus epidermidis 61540-51; assay: as above; type: cell-based; conditions: 2% solution, pH about 7, +37°C
Description: as §1

[4] = Unspecified toxicity, intravenous injection in mice; type: in vivo; conditions: Example 22: 37 mg per mouse i.v.
Description: Unspecified toxicity was tested on four mice by first weighing the animals, and then injecting the animals intravenously with 0.5 ml of an emulsion of 4-methyl-3-oxo-pentanoic acid having a concentration of 50 mg/ml for 10 minutes. Each mouse received a dosage of 25 mg. The emulsion was prepared aseptically, by emulsifying sterile-filtered ester with a sterilized dispersion of egg-yolk phospholipids. […] The increase in weight of the animals was normal during the observation period (weight increase: X=4.5 g, S.D. 0.5).
The unspecific toxicity was tested on 5 mice by first weighing the animals, and then injecting intravenously 0.5 ml of an emulsion of 4-methy-3-oxo-pentanoic acid ethyl ester having a concentration of 5 mg/ml for 15 seconds. The emulsion was aseptically prepared, by emulsifying sterile-filtered ester with a sterilized dispersion of egg-yolk phospholipids. […] Each mouse received a total dosage of 2.5 mg.
Unspecified toxicity was tested on four mice by first weighing the animals, and then injecting intravenously 0.2 ml of an emulsion of 4-methyl-3-oxo-pentanoic acid ethyl ester having a concentration of 33 mg/ml for 30 seconds. Each mouse received a dosage of 6.7 mg. The emulsion was prepared aseptically, by emulsifying sterile-filtered ester with a sterilized dispersion of egg-yolk phospholipids. […]

[5] = after 2 hours, inoculum about 3000-10 000/ml

Row | SMILES | number of microorganisms ([1]; 0 hr) | number of microorganisms ([1]; 2 hrs) | number of microorganisms ([1]; 20 hrs) | organism count [2, 5] | organism count ([2]; after 20 hours) | number of organisms [3, 5] | number of organisms ([3]; after 20 hours) | time after completing the injection until return to normal [4] [min] | weight development over the following 7 days [4]
1 | CCOC(=O)C(=O)C(C)C [Ethyl-3-methyl-2-oxo-butyrate] | 0* | 0 | 0 | – | – | – | – | – | –
2 | CCOC(=O)C(C)=O [Ethyl-pyruvate] | 0* | 0 | 0 | – | – | – | – | – | –
3 | CCOC(=O)CC(=O)C(C)C.[Na] [sodium salt of 4-methyl-3-oxo-pentanoic acid ethyl ester] | – | – | – | 2000 | 0 | No organisms were found | No organisms were found | – | –
4 | CCOC(=O)CC(=O)CC(C)C.[Na] [sodium salt of 5-methyl-3-oxo-hexanoic acid ethyl ester] | – | – | – | 44 | 0 | No organisms were found | No organisms were found | 1 | normal weight development

— patent EP0366632A1, “Alternative energy substrates” (priority 1988, dated 1990)
